Source: publication PMC7580763, “Novel insights on saccharin- and acesulfame-based carbonic anhydrase inhibitors: design, synthesis, modelling investigations and biological activity evaluation” (Journal of Enzyme Inhibition and Medicinal Chemistry, 2020)
Like-named read-outs stand apart in the source and are kept apart here.

Columns and labels:
Type in all cases: biochemical
hCA I = hCA I (Homo sapiens, UniProt P00915); experiment: CA inhibition, stopped-flow CO2 hydrase assay, hCA I
Protocol: (§1) An Applied Photophysics stopped-flow instrument has been used for assaying the CA-catalyzed CO2 hydration activity. […] The initial rates of the CA-catalysed CO2 hydration reaction were followed for a period of 10−100 s. The CO2 concentrations ranged from 1.7 to 17 mM for the determination of the kinetic parameters and inhibition constants. […] The uncatalyzed rates were determined in the same manner and subtracted from the total observed ones. Stock solutions of each inhibitor (0.1 mM) were prepared in distilled − deionized water and dilutions up to 0.01 nM were done thereafter with distilled − deionized water. Inhibitor and enzyme solutions were preincubated together for 15 min at room temperature prior to assay to allow for the formation of the E−I complex. The inhibition constants were obtained by nonlinear least-squares methods using the Cheng-Prusoff equation and represent the mean from at least three different determinations. […] Human CA isoforms were recombinant enzymes obtained in-house as reported earlier.

hCA II = hCA II (Homo sapiens, UniProt P00918); experiment: CA inhibition, stopped-flow CO2 hydrase assay, hCA II
Protocol: as §1

hCA IX = hCA IX (Homo sapiens, UniProt Q16790); experiment: CA inhibition, stopped-flow CO2 hydrase assay, hCA IX
Protocol: as §1

hCA XII = hCA XII (Homo sapiens, UniProt O43570); experiment: CA inhibition, stopped-flow CO2 hydrase assay, hCA XII
Protocol: as §1

[1] = Table 1, saccharin-based derivatives, recombinant enzyme, 15 min preincubation, pH 7.5
[2] = Table 2, acesulfame-based derivatives, mean from 3 different assays, errors ± 5–10%

hCA XII, sequence (O43570 25-354): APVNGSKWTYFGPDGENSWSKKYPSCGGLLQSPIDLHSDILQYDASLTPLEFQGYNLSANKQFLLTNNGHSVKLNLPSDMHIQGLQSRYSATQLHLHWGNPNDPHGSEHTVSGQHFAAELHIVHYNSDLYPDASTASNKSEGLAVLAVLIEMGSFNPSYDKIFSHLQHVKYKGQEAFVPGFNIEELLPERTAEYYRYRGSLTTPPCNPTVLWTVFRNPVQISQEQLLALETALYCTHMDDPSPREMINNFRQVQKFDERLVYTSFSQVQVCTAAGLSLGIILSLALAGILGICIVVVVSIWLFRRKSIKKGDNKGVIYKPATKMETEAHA
hCA I, sequence (P00915 whole entry): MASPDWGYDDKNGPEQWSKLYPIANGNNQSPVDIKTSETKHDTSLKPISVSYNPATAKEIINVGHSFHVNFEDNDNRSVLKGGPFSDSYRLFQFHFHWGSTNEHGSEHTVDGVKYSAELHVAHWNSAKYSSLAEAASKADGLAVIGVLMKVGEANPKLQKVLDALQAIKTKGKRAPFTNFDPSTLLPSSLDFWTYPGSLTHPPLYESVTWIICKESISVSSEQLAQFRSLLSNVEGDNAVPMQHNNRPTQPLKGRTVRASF

Compound | Ki (hCA I; [1]) | Ki (hCA II; [1]) | Ki (hCA IX; [1]) | Ki (hCA XII; [1]) | also measured
O=C(CN1C(=O)c2ccccc2S1(=O)=O)c1cccc([N+](=O)[O-])c1 [Compound 4] | > 1000 µM | > 1000 µM | > 1000 µM | – | inhibitory activity against hCA I, in words (hCA I): ineffective; inhibitory activity against hCA II, in words (hCA II): ineffective; Ki (hCA IX): > 1000 µM; Ki (hCA XII): 0.41 µM
Cc1cccc(C)c1N1C(=O)c2ccccc2S1(=O)=O [Compound 38] | > 1000 µM | > 1000 µM | > 1000 µM | > 1000 µM | –
Cc1ccc(-n2cc(CN3C(=O)c4ccccc4S3(=O)=O)nn2)cc1 [Compound 44] | > 1000 µM | > 1000 µM | 670 µM | > 1000 µM | –
O=C1c2ccccc2S(=O)(=O)N1c1ccc(F)cc1 [Compound 30] | > 1000 µM | > 1000 µM | > 1000 µM | > 1000 µM | –
CC1=CC(=O)N(Cc2ccc(Cl)c(Cl)c2)S(=O)(=O)O1 [Compound 52] | – | – | – | – | Ki (hCA I; [2]): > 1000 µM; Ki (hCA II; [2]): > 1000 µM; Ki (hCA IX; [2]): 0.47 µM; Ki (hCA XII; [2]): 2 µM
O=C(O)c1ccccc1S(=O)(=O)NCc1cn(Cc2ccccc2)nn1 [Compound 49] | > 100 µM | > 100 µM | 1.9 µM | 4.5 µM | –
CC1=CC(OCc2cn(-c3ccccc3)nn2)=NS(=O)(=O)O1 [Compound 55] | – | – | – | – | Ki (hCA I; [2]): > 1000 µM; Ki (hCA II; [2]): > 1000 µM; Ki (hCA IX; [2]): > 1000 µM; Ki (hCA XII; [2]): > 1000 µM
CC1=CC(OCc2cn(-c3ccc(Br)cc3)nn2)=NS(=O)(=O)O1 [Compound 58] | – | – | – | – | Ki (hCA I; [2]): > 1000 µM; Ki (hCA II; [2]): > 1000 µM; Ki (hCA IX; [2]): > 1000 µM; Ki (hCA XII; [2]): > 1000 µM
Cc1ccc(N2C(=O)c3ccccc3S2(=O)=O)cc1 [Compound 37] | > 1000 µM | > 1000 µM | > 1000 µM | > 1000 µM | –
CC(C)c1ccc(N2C(=O)c3ccccc3S2(=O)=O)cc1 [Compound 39] | > 1000 µM | > 1000 µM | > 1000 µM | > 1000 µM | –
O=C1c2ccccc2S(=O)(=O)N1c1ccc([N+](=O)[O-])cc1 [Compound 36] | > 1000 µM | > 1000 µM | 444 µM | > 1000 µM | Ki (hCA IX): 443 µM
O=C1c2ccccc2S(=O)(=O)N1c1cccc([N+](=O)[O-])c1 [Compound 35] | > 1000 µM | > 1000 µM | > 1000 µM | > 1000 µM | –

Continued, in another order:

Ki (hCA I; [1]) | Ki (hCA II; [1]) | Ki (hCA IX; [1]) | Ki (hCA XII; [1]) | Compound | also measured
> 1000 µM | > 1000 µM | 59.6 µM | > 1000 µM | COC(=O)c1ccccc1S(=O)(=O)Nc1ccccc1 [Compound 5] | –
> 1000 µM | > 1000 µM | 46.5 µM | > 1000 µM | O=C(O)c1ccccc1S(=O)(=O)Nc1ccccc1 [Compound 17] | –
> 1000 µM | > 1000 µM | 57.6 µM | > 1000 µM | COC(=O)c1ccccc1S(=O)(=O)Nc1ccc(C(C)C)cc1 [Compound 15] | –
> 1000 µM | > 1000 µM | > 1000 µM | > 1000 µM | COC(=O)c1ccccc1S(=O)(=O)Nc1cccc([N+](=O)[O-])c1 [Compound 11] | –
> 1000 µM | > 1000 µM | 62.8 µM | > 1000 µM | COC(=O)c1ccccc1S(=O)(=O)Nc1ccc([N+](=O)[O-])cc1 [Compound 12] | –
> 1000 µM | > 1000 µM | > 1000 µM | > 1000 µM | O=C(O)c1ccccc1S(=O)(=O)Nc1cccc([N+](=O)[O-])c1 [Compound 23] | –
> 1000 µM | > 1000 µM | > 1000 µM | > 1000 µM | Cc1cccc(C)c1NS(=O)(=O)c1ccccc1C(=O)O [Compound 26] | –
> 1000 µM | > 1000 µM | 262 µM | > 1000 µM | COC(=O)c1ccccc1S(=O)(=O)Nc1ccc(F)cc1 [Compound 6] | –
> 1000 µM | > 1000 µM | > 1000 µM | > 1000 µM | CC(C)c1ccc(NS(=O)(=O)c2ccccc2C(=O)O)cc1 [Compound 27] | –
> 1000 µM | > 1000 µM | 39.7 µM | > 1000 µM | COC(=O)c1ccccc1S(=O)(=O)Nc1c(C)cccc1C [Compound 14] | –
> 1000 µM | > 1000 µM | > 1000 µM | > 1000 µM | O=C(O)c1ccccc1S(=O)(=O)Nc1ccc(Cl)cc1 [Compound 20] | –
> 1000 µM | > 1000 µM | 45.8 µM | > 1000 µM | O=C(O)c1ccccc1S(=O)(=O)Nc1ccc(F)cc1 [Compound 18] | –
